Reference: ChEMBL document CHEMBL1201862, “PubChem BioAssay data set” (2004)
Active and inactive are the calls of the source.

Columns and labels:
[1] = NIH-3T3 fibroblast cytotoxicity, dose response, cytotoxicity control, cell-based, fluorescence, Alamar Blue, secondary assay (AID 2327); format: functional;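 also: NIH-3T3 mouse fibroblasts cultured with fluconazole at 8 µg/mL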
[2] = C. albicans growth with fluconazole, confirmation, fluorescence, retest (AID 2467); format: functional, cell-based
[3] = molecular target: T1, Serine/threonine-protein phosphatase (Candida dubliniensis (strain CD36 / CBS 7987 / NCPF 3949 / NRRLY-17841) (Yeast), UniProt B9W6M3); test: calcineurin pathway inhibitors in yeast reporter, dose response, S. cerevisiae, CDRE-lacZ, luminescence, secondary (AID 2388); format: functional, cell-based;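 also: yeast reporter cells carrying a calcineurin-responsive lacZ construct stimulated with calcium chloride; luminescent beta-galactosidase reporter signal in whole cells rather than isolated phosphatase activity; potency for inhibition where a drop in reporter signal means calcineurin blockade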
T1 sequence (B9W6M3 whole entry): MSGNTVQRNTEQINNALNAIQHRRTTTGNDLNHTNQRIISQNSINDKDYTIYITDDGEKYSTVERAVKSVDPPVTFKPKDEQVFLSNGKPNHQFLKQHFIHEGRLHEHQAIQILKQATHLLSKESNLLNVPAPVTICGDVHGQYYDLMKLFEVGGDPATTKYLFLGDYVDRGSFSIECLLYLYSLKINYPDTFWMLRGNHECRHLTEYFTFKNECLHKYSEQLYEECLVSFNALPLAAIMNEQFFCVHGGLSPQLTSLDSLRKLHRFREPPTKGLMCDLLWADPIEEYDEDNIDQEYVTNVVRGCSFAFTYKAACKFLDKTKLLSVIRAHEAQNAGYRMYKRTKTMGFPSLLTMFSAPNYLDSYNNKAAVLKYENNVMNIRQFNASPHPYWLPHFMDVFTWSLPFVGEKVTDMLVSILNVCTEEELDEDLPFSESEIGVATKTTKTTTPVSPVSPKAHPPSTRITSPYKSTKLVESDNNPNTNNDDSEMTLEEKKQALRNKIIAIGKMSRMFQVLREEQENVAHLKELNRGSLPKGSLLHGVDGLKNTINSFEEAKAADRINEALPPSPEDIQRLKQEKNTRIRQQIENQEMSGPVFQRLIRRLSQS

[4] = molecular target: ATP-dependent molecular chaperone HSP82 (Candida albicans (strain WO-1) (Yeast), UniProt C4YTQ8); test: loss of DOC-induced GRE-beta-galactosidase reporter signal, dose response, Hsp90 inhibitor project, S. cerevisiae, luminescence (AID 2400); format: functional, cell-based;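 also: beta-galactosidase luminescence from glucocorticoid response element reporter as proxy for Hsp90 function; inhibitor potency where signal loss means Hsp90 inhibition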
Chain of ATP-dependent molecular chaperone HSP82 (C4YTQ8 whole entry): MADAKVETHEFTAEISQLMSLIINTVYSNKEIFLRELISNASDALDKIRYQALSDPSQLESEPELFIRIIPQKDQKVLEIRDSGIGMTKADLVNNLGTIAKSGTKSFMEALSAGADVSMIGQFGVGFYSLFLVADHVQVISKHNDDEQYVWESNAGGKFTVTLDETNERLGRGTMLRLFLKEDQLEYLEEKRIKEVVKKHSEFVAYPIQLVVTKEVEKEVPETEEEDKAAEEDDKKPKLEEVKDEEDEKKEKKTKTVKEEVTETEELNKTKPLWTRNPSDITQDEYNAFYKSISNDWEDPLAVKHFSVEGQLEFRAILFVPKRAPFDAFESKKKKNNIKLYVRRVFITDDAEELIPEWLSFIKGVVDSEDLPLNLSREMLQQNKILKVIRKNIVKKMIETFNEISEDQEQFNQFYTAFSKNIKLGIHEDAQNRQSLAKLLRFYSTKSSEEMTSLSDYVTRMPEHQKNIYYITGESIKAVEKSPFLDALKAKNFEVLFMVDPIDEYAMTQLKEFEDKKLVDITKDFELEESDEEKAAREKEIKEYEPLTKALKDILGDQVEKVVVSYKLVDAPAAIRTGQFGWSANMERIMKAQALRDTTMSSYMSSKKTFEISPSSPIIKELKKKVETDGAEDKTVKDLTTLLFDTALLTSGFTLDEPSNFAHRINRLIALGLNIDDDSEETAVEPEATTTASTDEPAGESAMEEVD

[5] = molecular target: T2, Endoribonuclease toxin MazF (Escherichia coli K-12, UniProt P0AE70); test: MazF toxin RNase activators, dose response, biochemical, fluorescence, single-stranded RNA substrate, uHTS hits (AID 588481); format: functional
T2 sequence (P0AE70 whole entry): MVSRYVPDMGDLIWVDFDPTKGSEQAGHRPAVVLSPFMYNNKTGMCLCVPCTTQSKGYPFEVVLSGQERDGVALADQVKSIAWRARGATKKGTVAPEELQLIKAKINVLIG

[6] = molecular target: T2, Endoribonuclease toxin MazF; test: fluorescent RNA oligo signal without MazF, dose response, counter-screen for MazEF activator project, biochemical, fluorescence, single-stranded RNase substrate (AID 588502); format: functional
[7] = molecular target: T3, Microphthalmia-associated transcription factor (Homo sapiens, UniProt O75030); test: TRPM1 promoter luciferase signal decrease, dose response, MITF inhibitor project, cell-based, SK-MEL-5, cherry-picked, set 3 (AID 493073); format: functional
T3 sequence (O75030 whole entry): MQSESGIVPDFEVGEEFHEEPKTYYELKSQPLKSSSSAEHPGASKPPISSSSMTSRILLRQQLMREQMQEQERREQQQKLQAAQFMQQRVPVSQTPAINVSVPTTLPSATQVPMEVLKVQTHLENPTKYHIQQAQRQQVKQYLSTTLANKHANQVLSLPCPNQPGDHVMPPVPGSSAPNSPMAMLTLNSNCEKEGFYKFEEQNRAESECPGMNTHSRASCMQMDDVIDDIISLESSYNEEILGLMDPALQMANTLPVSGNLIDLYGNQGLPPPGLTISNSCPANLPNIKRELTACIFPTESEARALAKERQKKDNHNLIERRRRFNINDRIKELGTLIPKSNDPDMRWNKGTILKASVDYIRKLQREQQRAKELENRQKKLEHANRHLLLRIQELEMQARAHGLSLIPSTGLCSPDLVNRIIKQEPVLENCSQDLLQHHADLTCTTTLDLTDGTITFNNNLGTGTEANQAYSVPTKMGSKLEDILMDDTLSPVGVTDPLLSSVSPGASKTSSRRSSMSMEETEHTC

[8] = molecular target: T4, Replicative DNA helicase DnaB (Mycobacterium tuberculosis, UniProt P9WMR3); test: DnaB intein splicing inhibitors, dose response, biochemical, cell-free fluorescence (AID 449749); format: functional
T4 sequence (P9WMR3 whole entry): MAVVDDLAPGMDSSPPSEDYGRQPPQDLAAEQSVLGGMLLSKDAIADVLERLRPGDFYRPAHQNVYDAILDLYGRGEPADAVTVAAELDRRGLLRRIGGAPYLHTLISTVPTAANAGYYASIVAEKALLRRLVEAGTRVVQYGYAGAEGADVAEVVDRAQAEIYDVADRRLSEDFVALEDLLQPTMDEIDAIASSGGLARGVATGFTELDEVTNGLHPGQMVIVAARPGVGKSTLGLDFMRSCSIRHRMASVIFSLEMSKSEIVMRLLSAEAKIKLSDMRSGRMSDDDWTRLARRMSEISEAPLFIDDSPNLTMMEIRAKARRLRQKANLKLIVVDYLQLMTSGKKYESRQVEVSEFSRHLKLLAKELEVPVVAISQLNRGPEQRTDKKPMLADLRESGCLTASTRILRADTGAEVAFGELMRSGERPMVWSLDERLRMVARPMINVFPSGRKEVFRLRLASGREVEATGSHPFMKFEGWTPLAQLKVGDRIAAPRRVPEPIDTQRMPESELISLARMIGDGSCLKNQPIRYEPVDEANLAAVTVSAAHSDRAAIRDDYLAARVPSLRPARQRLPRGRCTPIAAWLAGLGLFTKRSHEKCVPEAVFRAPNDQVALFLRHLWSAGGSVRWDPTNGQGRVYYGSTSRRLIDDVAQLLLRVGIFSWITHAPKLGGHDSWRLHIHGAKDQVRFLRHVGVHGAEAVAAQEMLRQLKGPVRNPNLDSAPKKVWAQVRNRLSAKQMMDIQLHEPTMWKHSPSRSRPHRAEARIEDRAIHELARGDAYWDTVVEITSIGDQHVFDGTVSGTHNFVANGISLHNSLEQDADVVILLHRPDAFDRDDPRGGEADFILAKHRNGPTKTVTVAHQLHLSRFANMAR

[9] = molecular target: T5, Apoptotic protease-activating factor 1 (Homo sapiens, UniProt O14727); format: functional
T5 sequence (O14727 whole entry): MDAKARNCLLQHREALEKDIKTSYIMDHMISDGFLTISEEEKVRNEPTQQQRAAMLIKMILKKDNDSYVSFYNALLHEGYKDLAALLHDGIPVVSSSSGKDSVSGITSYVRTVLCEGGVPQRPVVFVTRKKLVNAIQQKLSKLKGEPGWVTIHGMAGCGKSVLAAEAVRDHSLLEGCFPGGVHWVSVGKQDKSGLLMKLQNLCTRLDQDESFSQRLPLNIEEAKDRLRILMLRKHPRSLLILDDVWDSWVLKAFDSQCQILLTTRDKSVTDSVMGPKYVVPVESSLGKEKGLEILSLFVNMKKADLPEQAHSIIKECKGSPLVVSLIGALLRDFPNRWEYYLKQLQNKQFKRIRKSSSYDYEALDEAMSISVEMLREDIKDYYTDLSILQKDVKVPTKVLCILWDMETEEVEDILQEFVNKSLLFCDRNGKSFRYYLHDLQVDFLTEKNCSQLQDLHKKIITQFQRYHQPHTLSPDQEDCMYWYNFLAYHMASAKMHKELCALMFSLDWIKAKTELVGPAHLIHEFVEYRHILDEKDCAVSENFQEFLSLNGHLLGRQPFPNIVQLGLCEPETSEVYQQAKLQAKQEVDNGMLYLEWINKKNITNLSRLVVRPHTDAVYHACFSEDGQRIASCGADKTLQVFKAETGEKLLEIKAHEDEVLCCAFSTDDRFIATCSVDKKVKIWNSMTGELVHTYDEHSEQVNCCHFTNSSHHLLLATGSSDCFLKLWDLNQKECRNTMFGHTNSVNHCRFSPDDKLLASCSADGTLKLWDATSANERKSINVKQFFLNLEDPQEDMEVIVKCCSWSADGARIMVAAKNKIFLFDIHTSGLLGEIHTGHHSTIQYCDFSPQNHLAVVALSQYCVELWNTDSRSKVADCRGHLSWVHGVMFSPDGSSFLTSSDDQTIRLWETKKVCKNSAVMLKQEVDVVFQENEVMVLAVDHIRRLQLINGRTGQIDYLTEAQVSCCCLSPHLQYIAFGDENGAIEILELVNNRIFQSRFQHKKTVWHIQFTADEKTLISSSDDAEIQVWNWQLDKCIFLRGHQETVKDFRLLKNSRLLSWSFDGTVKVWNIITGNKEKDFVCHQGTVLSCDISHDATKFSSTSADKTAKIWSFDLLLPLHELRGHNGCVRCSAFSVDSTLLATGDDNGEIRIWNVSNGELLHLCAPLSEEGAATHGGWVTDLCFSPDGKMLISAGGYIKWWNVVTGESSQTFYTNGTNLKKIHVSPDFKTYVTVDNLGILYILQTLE

Protein RecA = molecular target: T6, Protein RecA (Mycobacterium tuberculosis, UniProt P9WHJ3); test: Fluorescence Cell-Free Homogeneous Dose Retest to Identify Inhibitors of RecA-Intein Splicing Activity. [Related pubchem assays (depositor defined):AID2097, AID2223, AID489010, AID492950]; format: functional
T6 sequence (P9WHJ3 whole entry): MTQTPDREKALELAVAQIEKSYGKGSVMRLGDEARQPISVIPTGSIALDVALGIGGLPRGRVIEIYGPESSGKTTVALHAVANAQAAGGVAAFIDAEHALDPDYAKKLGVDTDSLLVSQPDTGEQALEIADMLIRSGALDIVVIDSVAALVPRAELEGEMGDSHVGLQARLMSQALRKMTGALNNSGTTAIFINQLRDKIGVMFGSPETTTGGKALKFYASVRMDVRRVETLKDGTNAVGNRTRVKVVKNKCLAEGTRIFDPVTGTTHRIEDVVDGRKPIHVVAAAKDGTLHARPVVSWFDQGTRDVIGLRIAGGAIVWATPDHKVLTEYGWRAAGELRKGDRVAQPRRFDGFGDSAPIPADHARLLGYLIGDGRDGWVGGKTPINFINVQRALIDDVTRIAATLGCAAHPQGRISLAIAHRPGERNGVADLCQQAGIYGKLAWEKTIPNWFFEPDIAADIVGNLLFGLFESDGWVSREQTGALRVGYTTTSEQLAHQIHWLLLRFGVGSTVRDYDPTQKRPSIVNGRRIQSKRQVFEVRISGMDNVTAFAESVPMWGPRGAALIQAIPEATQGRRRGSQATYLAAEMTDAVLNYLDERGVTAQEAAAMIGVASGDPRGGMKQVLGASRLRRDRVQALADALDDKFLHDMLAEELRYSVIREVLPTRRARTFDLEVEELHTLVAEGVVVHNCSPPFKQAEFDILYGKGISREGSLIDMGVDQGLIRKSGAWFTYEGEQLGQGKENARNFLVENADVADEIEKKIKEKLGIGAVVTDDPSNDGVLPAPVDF

INS1 = test: beta cell apoptosis inhibitors, cytokine rescue, dose response, luminescence, retest (AID 449756); format: functional, cell-based; conditions: Rattus norvegicus;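 also: cell death triggered by IL-1 beta plus TNF-alpha plus IFN-gamma mixture; protective hits raise ATP signal compared with cytokine alone wells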

| SMILES | EC50 [1] | EC50 [2] | EC50 [3] | EC50 [4] | AC50 [8] | IC50 [9] | EC50 (Protein RecA) | further results |
| --- | --- | --- | --- | --- | --- | --- | --- | --- |
| CCN=C(S)NNC(=O)c1cc(-c2ccccc2C)nc2ccccc12 | > 160 µM (inactive) | 0.931 µM (active) | > 180 µM (inactive) | > 160 µM (inactive) | – | – | – | – |
| CCc1nnc(NC(=O)CN2CCN(c3nc(-c4ccccc4)cs3)CC2)s1 | > 150 µM (inconclusive) | 1.18 µM (active) | > 180 µM (inactive) | > 150 µM (inactive) | – | – | – | – |
| COC(=O)C1=C(C)N(Cc2ccco2)C(=O)/C1=C\c1ccc(N(C)C)cc1 | – | – | – | – | – | – | – | EC50 [5]: 10.7 µM (active); EC50 [6]: 37.5 µM (inactive) |
| O=C(NC1=C(Nc2ccc(Cl)cc2)C(=O)c2ccccc2C1=O)c1ccccc1 | – | – | – | – | 10.4 µM (active) | 39.7 µM (active) | 6.55 µM (active) | AC50 [7]: 0.93 µM (active); AC50 (INS1): 6.9 µM (active) |
| CCOc1cc(CNc2ccc3c[nH]nc3c2)ccc1OC | – | – | – | – | > 380 µM (inactive) | 25.2 µM (active) | 7.37 µM (active) | – |
